The values that follow come from patent US7943630B2, “3,9-diaza-spiro[5.5]undecane derivatives and their use as monoamine neurotransmitter re-uptake inhibitors” (Neurosearch A/S, priority 2005, dated 2011).

Take `Brc1cccc(N2CCC3(CCNCC3)CC2)n1.O=C(O)/C=C/C(=O)O`: the melting point (commonly the temperature, or range, at which the solid turns liquid) lay in the range of 198.5 to 199.3 °C.
For `c1ccc2cc(N3CCC4(CCNCC4)CC3)ccc2c1` [10th compound of method C, 3-Naphthalen-2-yl-3,9-diaza-spiro[5.5]undecane], the melting point fell in the range of 158 to 162 °C.
As to `Clc1cccc(N2CCC3(CCNCC3)CC2)c1Cl`, the melting point is 80.4 to 81.9 °C.
For `Clc1ccc(N2CCC3(CCNCC3)CC2)nc1` the value was 71.2 to 72.9 °C.
For `Clc1ccc(N2CCC3(CCNCC3)CC2)cc1` [7th compound of method C, 3-(4-Chloro-phenyl)-3,9-diaza-spiro[5.5]undecane] the value was 95.5 to 97.4 °C; for `Brc1ccc(N2CCC3(CCNCC3)CC2)nc1`, 103 to 105 °C.
Next, `Clc1ccc(N2CCC3(CCNCC3)CC2)cc1Cl` [4th compound of method C, 3-(3,4-Dichloro-phenyl)-3,9-diaza-spiro[5.5]undecane]: 209 to 212 °C.
In turn, `COc1ccc2cc(N3CCC4(CCNCC4)CC3)ccc2c1` [3rd compound of method C, 3-(6-Methoxy-naphthalen-2-yl)-3,9-diaza-spiro[5.5]undecane] had a melting point of 175.8 to 177.6 °C.
Take `Fc1ccc(N2CCC3(CCNCC3)CC2)cc1Cl.O=C(O)/C=C/C(=O)O`: the melting point was 201.4 to 202.2 °C.
